# Where “and” joins values, the source holds several entries; their conditions need not be identical. Identical values can stand only once. Like-named read-outs stand apart in the source and are kept apart here.
# Key:
# [1] = test system: Human Herpesvirus type 1 (HHV-1); assay: End-point titration technique (EPTT), anti-herpetic screening on infected Vero cells; format: cell-based; conditions: for Rf (reduction factor of the viral titer), HHV-1: 1 TCID50, 48 h
# Description: (§1) The in vitro antiviral evaluation of the 27 substances against Human Herpesvirus type 1 (HHV-1) and 2 (HHV-2) was made on infected Vero cells, using the end-point titration technique (EPTT).
# (§2) The antiviral activity of molecules against 1 and 10 Cell Culture Infectious Dose 50% (10TCID50) of HHV-1 and HHV-2, respectively, was determined using end-point titration technique (EPTT). Vero cells grown in 96-well plates at a density of 2.0 × 10^4 cells/well were incubated at 37 °C in 5% CO2 atmosphere until constitute 80% of cell monolayer. Then, viral suspensions of HHV-1 or HHV-2 with concentrations of 6.25 µg/mL to 50 µg/mL of compounds were performed in DMEM supplemented with 2% FBS containing 1% and 0.5% carboxymethylcellulose (CMC) for HHV-1 and HHV-2, respectively. Mixture was incubated during 15 minutes at room temperature and was added to the cell monolayer. After 48 h of incubation at 37 °C (5% CO2), the cytopathic effect was examined, the microplates were fixed with 3.5% formaldehyde and stained with 0.2% crystal violet. Two independent experiments by quadruplicate for each viral serotype and each were carried out. Positive controls, such as dextran sulfate (DS) and acyclovir (A) for early stages and late stages of infection, respectively, were included.
# [2] = test system: Human Herpesvirus type 2 (HHV-2); assay: as above; format: cell-based, Human Herpesvirus 2; conditions: for Rf (reduction factor of the viral titer), HHV-2: 10 TCID50, 48 h
# Description: as §1, §2
# [3] = test system: HHV-2; assay: Plaque reduction assay, simultaneous and post-infection treatment, Vero cells; format: cell-based, Human Herpesvirus 2
# Description: (§3) To define the stage of the viral replicative cycle where NQ 4 exerts its action, simultaneous and post-infection treatments against HHV-1 and HHV-2 were performed. […] First, we determined the inhibitory concentration 50% (IC50) for the compound and drug positive controls on infected cells and their effects on non-tumoral Vero cells, to define the concentration of evaluation and to calculate the antiviral selectivity index (SI). Then, the concentration of NQ 4 that reduced the number of viral plaques by 50% (EC50) was determined from the dose-response curves.
# The potential antiviral mechanism of NQ 4 was evaluated by the plaque reduction assay as previously described by us. Vero cell monolayers grown in 24-well plates were infected with 100 PFU/well of each virus. For simultaneous treatment, the compound and the virus were added simultaneously to the cell monolayers and incubated for 1 h at 37 °C (5% CO2). Then, cells were washed with phosphate buffered saline (PBS, pH = 7.0) and CMC at 1% and 0.75% was added for HHV-1 and HHV-2, respectively. In post-infection treatment, virus was added to cell monolayer and incubated for 1 h at 37 °C (5% CO2). After incubation, washing was performed with PBS and molecule previously prepared in CMC 1% and 0.75% for HHV-1 and HHV-2 respectively, was added. In both treatments, NQ 4 was prepared at concentrations from 0.4 µg/mL to 3.1 µg/mL and the cell monolayers allowed to incubate for 72 h. Subsequently, cells were fixed and stained with a solution of 3.5% formaldehyde with 0.2% crystal violet, and the viral plaques were counted. Dextran sulfate (DS) was included as positive control in simultaneous assay and acyclovir (A) was the positive control in after infection treatment.
# [4] = test system: DENV-2; assay: Plaque reduction assay, simultaneous and post-infection treatment, BHK-21 cells; format: cell-based, Dengue virus type 2
# Description: as §3
# Against DENV, the effect of NQ 4 either simultaneously or post-infection was also evaluated by the plaque reduction assay as previously described. Concentrations employed for this assay were from 0.4 µg/mL to 1.6 µg/mL. In this test, BHK-21 cell monolayers grown in 24-well plates were infected with 100 PFU/well of DENV-2 and treatments were performed in the same way to describe for Herpesviruses. Moreover, the monolayers were incubated for 6 days, fixed and stained with a solution of 3.5% formaldehyde with 0.2% crystal violet, and the viral plaques were counted. Heparin (H) was included as a positive control in the simultaneous assay, and ribavirin (R) was the positive control in after infection treatment.
# [5] = test system: HeLa; assay: MTT cytotoxicity assay; format: cell-based; conditions: Homo sapiens, HeLa ATCC CRL-1958, 48 h, read-out: IC50 ± SD, HeLa
# Description: (§4) Then, each diluted molecule was added to the cells and incubated for further 48 h at 37 °C, 5% CO2. […] The DMSO was then added to dissolve the formed formazan crystals and absorbance was determined spectrophotometrically at 570 nm. […] IC50 values were expressed as the mean ± standard deviation (M ± SD) of two independent experiments done in quadruplicate.
# [6] = test system: Jurkat; assay: MTT cytotoxicity assay; format: cell-based; conditions: Homo sapiens, Jurkat ATCC TIB-152, 48 h, read-out: IC50 ± SD, Jurkat
# Description: as §4
# [7] = test system: Vero; assay: MTT cytotoxicity assay, non-tumor cells; format: cell-based, Cercopithecus aethiops; conditions: Chlorocebus sabaeus
# Description: The in vitro cytotoxicity evaluation of quinones was performed using the 3-(4,5 dimethylthiazol-2-yl)-2,5-diphenyltetrazolium bromide (MTT, Sigma, Cream Ridge, NJ, USA) assay as described by Betancur-Galvis et al. 2002 [22]. Briefly, Vero and HeLa cell lines were seeded at 2.0 × 10^3 cells per well of 96-well plates in DMEM supplemented with 10% of inactivated FBS, and were incubated for 24 h at 37 °C, 5% CO2. Then, each diluted molecule was added to the cells and incubated for further 48 h at 37 °C, 5% CO2. Jurkat cell line at 3 × 10^3 cells per well in a 96-well round-bottomed plate and diluted substances in RPMI-1640 medium (Sigma) supplemented with 10% FBS were plated simultaneously. After 48 h of treatment at 37 °C, 5% CO2, the media was carefully removed and 28 µL of MTT solution (4 mg/mL) was added to each well, and the plates were incubated for 2 h at 37 °C, 5% CO2. The DMSO was then added to dissolve the formed formazan crystals and absorbance was determined spectrophotometrically at 570 nm.
# The minimal dilution of compound that caused 50% inhibition of the cells (IC50) was calculated by linear regression analysis of the dose-response curves generated from the absorbance data with the statistical GraphPad Prisma 5.0. IC50 values were expressed as the mean ± standard deviation (M ± SD) of two independent experiments done in quadruplicate.
structure (smiles),measurement,setting,value
CC(C)CCCc1ccc2c(c1)C(=O)C(Cl)=C(Cl)C2=O [NQ 4],"Rf (reduction factor of the viral titer), HHV-1",[1],1 × 10^2
same,"Rf (reduction factor of the viral titer), HHV-1",[1]; listed as 4,10^2
same,minimal effective concentration,"[1]; Human alphaherpesvirus 1, 1 TCID50, 48 h, tested 6.25-50 µg/mL, read-out: 1 TCID50: non-toxic concentration that showed viral reduction factor, HHV-1",6.25 µg/mL
same,"Rf (reduction factor of the viral titer), HHV-2",[2],1 × 10^2
same,"Rf (reduction factor of the viral titer), HHV-2",[2]; listed as 4,10^2
same,minimal effective concentration,"[2]; Human alphaherpesvirus 2, 10 TCID50, 48 h, tested 6.25-50 µg/mL, read-out: 10 TCID50: non-toxic concentration that showed viral reduction factor, HHV-2",12.5 µg/mL
same,EC50,"[3]; Human alphaherpesvirus 2, simultaneous treatment, read-out: EC50, anti-herpetic activity on pre-infective stages, HHV-2",< 0.4 µg/mL and < 1.28 µM
same,"Antiviral activity in post-infection treatment, HHV-2","[3]; post-infective stages, acyclovir 1.5 µg/mL",no activity
same,"Antiviral activity in simultaneous treatment, HHV-2","[3]; simultaneous treatment, PFU, NQ 4 0.4–3.1 µg/mL, DS 5 µg/mL",anti-herpetic activity in all concentrations tested
same,"Antiviral activity in post-infection treatment, DENV-2","[4]; post-infective stages, ribavirin 3.7 µg/mL",no activity
same,Concentration showing antiviral activity against DENV-2,[4]; pre-infective stages,5.1 µM
same,Concentration showing significant antiviral activity against DENV-2,"[4]; simultaneous treatment (pre-infective stages), tested 0.4–1.6 µg/mL",1.6 µg/mL
same,IC50,[5],46.6 ± 3.3 µM
same,IC50,[6],36.3 ± 2 µM
same,IC50,"[7]; Vero ATCC CCL-81, 48 h, MTT, read-out: IC50 ± SD, Vero",≥ 643 µM
same,IC50,"[7]; non-tumoral Vero cells, data not shown, read-out: IC50 on Vero cells",> 200 µg/mL

# — publication PMC6479402, “Anti-Herpetic, Anti-Dengue and Antineoplastic Activities of Simple and Heterocycle-Fused Derivatives of Terpenyl-1,4-Naphthoquinone and 1,4-Anthraquinone” (Molecules, 2019)
